# Laboratory results reported in US6521456B1, “Cellular transport system for the transfer of a nucleic acid through the nuclear envelope and methods thereof” (priority 1999, dated 2003).
# System: promoter of the ampicillin resistance gene (expression vector DNA)
# Assay: Binding of PNA-peptide-hybrids to double stranded vector DNA (inhibition of Earl cleavage at the PNA binding site)
# Details: 25 μM PNA-peptide-hybrid, 100 ng vector
# Experimental: 100 ng expression vector were incubated in TE (pH 7,8) with 25 μM of different PNA-peptide-hybrids at either 65° C. or 37° C. for five minutes to three hours. The PNA-sequence NH2-CTCTTCCTTTTTC-COOH (SEQ ID NO: 6) used here, binds to the promoter of the ampicillin resistance gene.
# At the C-terminus either a peptide of 21 amino acids (Peptide 1) or 27 amino acids (Peptide 2) or a spacer of 10 AEEA-units (Fmoc-AEEA-OH Spacer, PerSeptive Biosystems Inc., Framingham, USA) followed by 27 amino acids (Peptide 3) is located. The binding assays were subsequently incubated with restriction endonuclease Earl. Restricted DNA was stained with YOYO (Molecular Probes, Inc., Eugene, Oreg., USA) separated on an agarose gel and quantified with a fluorescence scanner (Image Plate Reader FLA 2000, analysis software L-Process, version 1.6, Fuji Photo Film Co., Ltd., Tokio). Cleavage of DNA by restriction endonuclease Earl is inhibited at the PNA binding site. Additional Earl restriction sites serve as internal control of the reaction.
Substance,"Portion of peptide-labelled DNA shown as percentage of input DNA (37 °C, 60 min)","Portion of peptide-labelled DNA shown as percentage of input DNA (37 °C, 120 min)","Portion of peptide-labelled DNA shown as percentage of input DNA (37 °C, 180 min)","Portion of peptide-labelled DNA shown as percentage of input DNA (65 °C, 5 min)","Portion of peptide-labelled DNA shown as percentage of input DNA (65 °C, 10 min)","Portion of peptide-labelled DNA shown as percentage of input DNA (65 °C, 15 min)"
H-GKPSSDDEATADSQHSTPPKKKRKVED-OH [Peptide 2],90%,91%,94%,96%,97%,97%
H-GKPTADDQHSTPPKKKRKVED-OH [Peptide 1],85%,91%,94%,94%,96%,96%
NH2-(AEEA)10-GKPSSDDEATADSQHSTPPKKKRKVED-COOH [Peptide 3],74%,76%,90%,91%,95%,95%
